According to article PMC10838953:

How the values were obtained:
PRKCH = PRKCH (Homo sapiens, UniProt P24723); test: biochemical; details: read-out: %Ctrl @ 2000nM
TNK2 = TNK2 (Homo sapiens, UniProt Q07912); test: biochemical; details: read-out: %Ctrl @ 2000nM
CLK4 = CLK4 (Homo sapiens, UniProt Q9HAZ1); test: biochemical; details: read-out: %Ctrl @ 2000nM
KIT(V559D,V654A) = KIT(V559D,V654A) (Homo sapiens, UniProt P10721, V559D/V654A); test: biochemical; details: read-out: %Ctrl @ 2000nM
MUSK = MUSK (Homo sapiens, UniProt O15146); test: biochemical; details: read-out: %Ctrl @ 2000nM
PRKD2 = PRKD2 (Homo sapiens, UniProt Q9BZL6); test: biochemical; details: read-out: %Ctrl @ 2000nM
TSSK3 = TSSK3 (Homo sapiens, UniProt Q96PN8); test: biochemical; details: read-out: %Ctrl @ 2000nM
YANK1 = YANK1 (Homo sapiens, UniProt Q8WU08); test: biochemical; details: read-out: %Ctrl @ 2000nM
PKAC-beta = PKAC-beta (Homo sapiens, UniProt P22694); test: biochemical; details: read-out: %Ctrl @ 2000nM
MST3 = MST3 (Homo sapiens, UniProt Q9Y6E0); test: biochemical; details: read-out: %Ctrl @ 2000nM
MST2 = MST2 (Homo sapiens, UniProt Q13188); test: biochemical; details: read-out: %Ctrl @ 2000nM
CDC2L1 = CDC2L1 (Homo sapiens, UniProt P21127); test: biochemical; details: read-out: %Ctrl @ 2000nM
BUB1 = BUB1 (Homo sapiens, UniProt O43683); test: biochemical; details: read-out: %Ctrl @ 2000nM
EGFR(G719C) = EGFR(G719C) (Homo sapiens, UniProt P00533, G719C); test: biochemical; details: read-out: %Ctrl @ 2000nM
PLK3 = PLK3 (Homo sapiens, UniProt Q9H4B4); test: biochemical; details: read-out: %Ctrl @ 2000nM
CDC2L2 = CDC2L2 (Homo sapiens, UniProt Q9UQ88); test: biochemical; details: read-out: %Ctrl @ 2000nM
PIK3CA(E545A) = PIK3CA(E545A) (Homo sapiens, UniProt P42336, E545A); test: biochemical; details: read-out: %Ctrl @ 2000nM
AKT1 = AKT1 (Homo sapiens, UniProt P31749); test: biochemical; details: read-out: %Ctrl @ 2000nM
BMPR1A = BMPR1A (Homo sapiens, UniProt P36894); test: biochemical; details: read-out: %Ctrl @ 2000nM
LKB1 = LKB1 (Homo sapiens, UniProt Q15831); test: biochemical; details: read-out: %Ctrl @ 2000nM
AAK1 = AAK1 (Homo sapiens, UniProt Q2M2I8); test: biochemical; details: read-out: %Ctrl @ 2000nM
DLK = DLK (Homo sapiens, UniProt Q12852); test: biochemical; details: read-out: %Ctrl @ 2000nM
KIT(D816V) = KIT(D816V) (Homo sapiens, UniProt P10721, D816V); test: biochemical; details: read-out: %Ctrl @ 2000nM
TEC = TEC (Homo sapiens, UniProt P42680); test: biochemical; details: read-out: %Ctrl @ 2000nM
PAK2 = PAK2 (Homo sapiens, UniProt Q13177); test: biochemical; details: read-out: %Ctrl @ 2000nM
TAK1 = TAK1 (Homo sapiens, UniProt O43318); test: biochemical; details: read-out: %Ctrl @ 2000nM
DRAK1 = DRAK1 (Homo sapiens, UniProt Q9UEE5); test: biochemical; details: read-out: %Ctrl @ 2000nM
LIMK1 = LIMK1 (Homo sapiens, UniProt P53667); test: biochemical; details: read-out: %Ctrl @ 2000nM
PRKX = PRKX (Homo sapiens, UniProt P51817); test: biochemical; details: read-out: %Ctrl @ 2000nM
KIT(A829P) = KIT(A829P) (Homo sapiens, UniProt P10721, A829P); test: biochemical; details: read-out: %Ctrl @ 2000nM
TRKA = TRKA (Homo sapiens, UniProt P04629); test: biochemical; details: read-out: %Ctrl @ 2000nM
PIK3CA(E542K) = PIK3CA(E542K) (Homo sapiens, UniProt P42336, E542K); test: biochemical; details: read-out: %Ctrl @ 2000nM
CK2 in HEK293 cells = details: read-out: IC50 CK2 activity in cell extracts
PIK4CB = PIK4CB (Homo sapiens, UniProt Q9UBF8); test: biochemical; details: read-out: %Ctrl @ 2000nM
DYRK1A = DYRK1A (Homo sapiens, UniProt Q13627); test: biochemical; details: read-out: %Ctrl @ 2000nM
SNRK = SNRK (Homo sapiens, UniProt Q9NRH2); test: biochemical; details: read-out: %Ctrl @ 2000nM
[1] = target: RSK2(Kin.Dom.2-C-terminal) (Homo sapiens, UniProt P51812); test: biochemical; details: read-out: %Ctrl @ 2000nM
PIK3CB = PIK3CB (Homo sapiens, UniProt P42338); test: biochemical; details: read-out: %Ctrl @ 2000nM
CK2α′ = CK2α′ (Homo sapiens, UniProt P19784); details: 36 ng recombinant catalytic subunits
MAP4K2 = MAP4K2 (Homo sapiens, UniProt Q12851); test: biochemical; details: read-out: %Ctrl @ 2000nM
FLT3(K663Q) = FLT3(K663Q) (Homo sapiens, UniProt P36888, K663Q); test: biochemical; details: read-out: %Ctrl @ 2000nM

Sequence of PIK3CB (P42338 whole entry): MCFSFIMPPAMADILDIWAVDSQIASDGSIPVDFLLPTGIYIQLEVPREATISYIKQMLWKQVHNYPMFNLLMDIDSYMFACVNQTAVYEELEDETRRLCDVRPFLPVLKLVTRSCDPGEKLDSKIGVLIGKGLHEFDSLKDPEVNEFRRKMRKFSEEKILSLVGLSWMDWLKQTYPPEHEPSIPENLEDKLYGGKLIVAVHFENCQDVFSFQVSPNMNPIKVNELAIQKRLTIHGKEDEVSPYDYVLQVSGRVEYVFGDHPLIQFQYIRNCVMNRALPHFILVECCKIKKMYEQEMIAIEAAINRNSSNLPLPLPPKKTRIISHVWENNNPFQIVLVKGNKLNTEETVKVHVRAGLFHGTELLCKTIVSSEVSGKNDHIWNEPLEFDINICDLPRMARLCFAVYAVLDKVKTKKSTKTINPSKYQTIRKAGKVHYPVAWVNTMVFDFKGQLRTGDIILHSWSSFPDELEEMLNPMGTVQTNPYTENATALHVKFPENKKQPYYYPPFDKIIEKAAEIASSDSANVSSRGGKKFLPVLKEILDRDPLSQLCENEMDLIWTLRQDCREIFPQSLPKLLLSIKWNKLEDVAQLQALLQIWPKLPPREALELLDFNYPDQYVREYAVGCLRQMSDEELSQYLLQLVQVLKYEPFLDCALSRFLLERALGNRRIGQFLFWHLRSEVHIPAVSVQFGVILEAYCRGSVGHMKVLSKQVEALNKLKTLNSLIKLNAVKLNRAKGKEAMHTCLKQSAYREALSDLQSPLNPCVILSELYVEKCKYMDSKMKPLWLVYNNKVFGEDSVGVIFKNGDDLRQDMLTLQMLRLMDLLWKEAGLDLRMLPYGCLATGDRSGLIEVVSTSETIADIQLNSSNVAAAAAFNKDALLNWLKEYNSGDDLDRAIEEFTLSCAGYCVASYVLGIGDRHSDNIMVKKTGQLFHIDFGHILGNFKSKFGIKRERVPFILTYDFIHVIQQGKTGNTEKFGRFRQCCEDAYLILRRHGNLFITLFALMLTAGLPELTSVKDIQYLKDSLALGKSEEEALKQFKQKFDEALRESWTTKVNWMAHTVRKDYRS
Sequence of PIK4CB (Q9UBF8 whole entry): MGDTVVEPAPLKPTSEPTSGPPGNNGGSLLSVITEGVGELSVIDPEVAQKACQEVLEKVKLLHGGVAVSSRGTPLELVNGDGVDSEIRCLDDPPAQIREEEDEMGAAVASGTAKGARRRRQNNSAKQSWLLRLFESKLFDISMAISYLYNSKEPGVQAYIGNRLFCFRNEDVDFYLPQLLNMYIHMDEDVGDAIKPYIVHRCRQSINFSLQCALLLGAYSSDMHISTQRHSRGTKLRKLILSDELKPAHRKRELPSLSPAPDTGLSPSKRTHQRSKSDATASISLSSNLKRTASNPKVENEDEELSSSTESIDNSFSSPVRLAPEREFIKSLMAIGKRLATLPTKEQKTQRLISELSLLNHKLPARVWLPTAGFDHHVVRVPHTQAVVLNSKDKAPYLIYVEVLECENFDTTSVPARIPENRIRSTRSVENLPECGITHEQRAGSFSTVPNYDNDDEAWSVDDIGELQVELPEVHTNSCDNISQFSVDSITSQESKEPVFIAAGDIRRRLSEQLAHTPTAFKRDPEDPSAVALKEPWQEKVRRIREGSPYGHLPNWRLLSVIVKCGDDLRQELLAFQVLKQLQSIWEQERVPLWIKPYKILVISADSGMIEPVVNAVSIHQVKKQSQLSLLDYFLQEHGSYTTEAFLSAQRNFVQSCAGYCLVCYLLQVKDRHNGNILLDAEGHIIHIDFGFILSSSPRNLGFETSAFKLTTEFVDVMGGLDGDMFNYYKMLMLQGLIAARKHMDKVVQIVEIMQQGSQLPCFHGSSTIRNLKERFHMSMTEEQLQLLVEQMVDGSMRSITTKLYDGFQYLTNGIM
Sequence of PIK3CA(E545A) (P42336 whole entry E545A): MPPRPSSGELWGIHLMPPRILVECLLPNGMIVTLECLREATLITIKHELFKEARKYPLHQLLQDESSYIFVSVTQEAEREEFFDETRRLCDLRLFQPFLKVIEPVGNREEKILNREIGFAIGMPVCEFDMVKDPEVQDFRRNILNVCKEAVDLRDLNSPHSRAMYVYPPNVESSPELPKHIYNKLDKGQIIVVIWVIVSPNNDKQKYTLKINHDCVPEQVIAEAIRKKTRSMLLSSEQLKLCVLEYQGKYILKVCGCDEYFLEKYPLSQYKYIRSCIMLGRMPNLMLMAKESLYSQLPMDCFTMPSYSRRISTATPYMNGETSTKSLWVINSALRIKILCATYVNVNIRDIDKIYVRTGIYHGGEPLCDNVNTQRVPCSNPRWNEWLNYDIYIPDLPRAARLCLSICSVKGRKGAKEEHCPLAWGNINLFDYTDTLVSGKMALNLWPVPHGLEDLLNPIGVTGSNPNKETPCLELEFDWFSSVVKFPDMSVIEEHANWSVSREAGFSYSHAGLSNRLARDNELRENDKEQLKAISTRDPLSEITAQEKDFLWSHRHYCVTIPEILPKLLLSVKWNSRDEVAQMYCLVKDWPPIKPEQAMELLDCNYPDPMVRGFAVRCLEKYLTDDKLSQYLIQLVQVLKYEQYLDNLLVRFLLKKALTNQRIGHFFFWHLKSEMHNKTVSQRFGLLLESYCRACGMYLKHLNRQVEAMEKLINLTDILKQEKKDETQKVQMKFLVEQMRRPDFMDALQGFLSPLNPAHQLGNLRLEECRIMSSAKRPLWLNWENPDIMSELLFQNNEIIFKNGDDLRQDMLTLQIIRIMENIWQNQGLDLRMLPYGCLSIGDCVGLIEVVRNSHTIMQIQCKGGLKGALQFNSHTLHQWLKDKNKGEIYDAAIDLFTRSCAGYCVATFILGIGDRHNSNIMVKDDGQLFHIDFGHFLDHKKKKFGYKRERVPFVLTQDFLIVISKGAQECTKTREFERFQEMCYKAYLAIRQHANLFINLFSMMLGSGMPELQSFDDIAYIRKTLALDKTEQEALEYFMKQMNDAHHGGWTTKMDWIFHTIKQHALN
Sequence of DLK (Q12852 whole entry): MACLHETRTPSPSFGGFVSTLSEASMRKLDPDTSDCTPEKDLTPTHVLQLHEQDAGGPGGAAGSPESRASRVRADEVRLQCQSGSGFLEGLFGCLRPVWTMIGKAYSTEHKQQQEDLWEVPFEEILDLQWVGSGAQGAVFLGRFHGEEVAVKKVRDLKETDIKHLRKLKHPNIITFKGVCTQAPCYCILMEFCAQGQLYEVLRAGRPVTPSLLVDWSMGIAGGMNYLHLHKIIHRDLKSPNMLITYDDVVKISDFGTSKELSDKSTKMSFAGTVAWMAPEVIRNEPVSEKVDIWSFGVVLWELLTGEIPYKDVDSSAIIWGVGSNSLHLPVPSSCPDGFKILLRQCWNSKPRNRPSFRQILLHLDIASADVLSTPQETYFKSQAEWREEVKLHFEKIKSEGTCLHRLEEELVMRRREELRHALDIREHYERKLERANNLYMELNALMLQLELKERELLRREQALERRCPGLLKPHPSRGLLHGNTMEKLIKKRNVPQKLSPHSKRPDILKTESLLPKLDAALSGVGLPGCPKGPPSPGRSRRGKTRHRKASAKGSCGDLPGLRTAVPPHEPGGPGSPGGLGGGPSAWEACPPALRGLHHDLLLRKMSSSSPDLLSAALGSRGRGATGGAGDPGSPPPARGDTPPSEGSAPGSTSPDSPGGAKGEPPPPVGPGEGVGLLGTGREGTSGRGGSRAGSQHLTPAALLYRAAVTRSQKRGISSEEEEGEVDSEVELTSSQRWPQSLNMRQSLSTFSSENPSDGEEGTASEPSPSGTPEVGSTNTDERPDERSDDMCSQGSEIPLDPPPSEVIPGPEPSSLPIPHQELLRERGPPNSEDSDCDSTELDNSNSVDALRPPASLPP
Sequence of LIMK1 (P53667 whole entry): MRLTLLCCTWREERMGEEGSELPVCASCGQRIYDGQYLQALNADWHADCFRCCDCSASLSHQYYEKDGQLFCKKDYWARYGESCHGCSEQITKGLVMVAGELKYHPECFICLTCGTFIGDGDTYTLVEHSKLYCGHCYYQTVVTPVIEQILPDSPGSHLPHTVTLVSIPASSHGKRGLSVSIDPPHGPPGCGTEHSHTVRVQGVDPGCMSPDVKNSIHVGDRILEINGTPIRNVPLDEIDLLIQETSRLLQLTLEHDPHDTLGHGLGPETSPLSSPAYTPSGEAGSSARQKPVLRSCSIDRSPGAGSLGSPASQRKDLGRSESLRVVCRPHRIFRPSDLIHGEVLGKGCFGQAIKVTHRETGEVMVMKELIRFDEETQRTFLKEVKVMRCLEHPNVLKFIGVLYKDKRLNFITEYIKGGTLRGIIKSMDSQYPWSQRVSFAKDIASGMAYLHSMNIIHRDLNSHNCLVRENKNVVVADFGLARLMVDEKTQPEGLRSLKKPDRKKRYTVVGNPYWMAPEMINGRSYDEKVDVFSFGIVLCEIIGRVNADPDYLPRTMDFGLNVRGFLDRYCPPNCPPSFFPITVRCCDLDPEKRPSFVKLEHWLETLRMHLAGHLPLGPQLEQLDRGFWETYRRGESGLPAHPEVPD
Sequence of MST2 (Q13188 whole entry): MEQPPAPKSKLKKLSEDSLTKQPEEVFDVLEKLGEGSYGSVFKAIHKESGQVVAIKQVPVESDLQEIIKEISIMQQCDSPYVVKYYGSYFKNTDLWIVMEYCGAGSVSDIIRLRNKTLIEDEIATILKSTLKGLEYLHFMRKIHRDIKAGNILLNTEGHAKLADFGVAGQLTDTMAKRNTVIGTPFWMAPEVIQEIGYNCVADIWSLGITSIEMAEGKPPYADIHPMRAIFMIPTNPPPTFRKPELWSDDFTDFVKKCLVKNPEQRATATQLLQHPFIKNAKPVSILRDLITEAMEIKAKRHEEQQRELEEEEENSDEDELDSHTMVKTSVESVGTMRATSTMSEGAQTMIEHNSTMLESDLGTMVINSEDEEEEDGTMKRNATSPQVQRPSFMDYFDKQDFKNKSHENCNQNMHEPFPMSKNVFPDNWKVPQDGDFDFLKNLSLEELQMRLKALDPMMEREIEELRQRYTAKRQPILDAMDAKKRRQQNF
Sequence of PIK3CA(E542K) (P42336 whole entry E542K): as the sequence (P42336 whole entry E545A) above, with E542K, A545E counted along it

In the case of `CC(C)COC(=O)c1[nH]c2ccc(F)cc2c1-c1cn(CC2CCN(CCNS(=O)(=O)c3ccc(CC(C)C)cc3)CC2)nn1` [AB668, isobutyl 5-fluoro-3-(1-((1-(2-((4-isobutylphenyl)sulfonamido)ethyl)piperidin-4-yl)methyl)-1H-1,2,3-triazol-4-yl)-1H-indole-2-carboxylate], the remaining activity at 2 µM (PRKCH) is reported as 92%, the remaining activity at 2 µM (TNK2) is reported as 100% and the “%Ctrl @ 2000nM” value (FLT3(ITD,F691L)) is reported as 96%. It also gave a remaining activity at 2 µM (CLK4) of 97%, a remaining activity at 2 µM (KIT(V559D,V654A)) of 100% and a remaining activity at 2 µM (MUSK) of 92%. For the same compound, the remaining activity at 2 µM (PRKD2) was 88%, the remaining activity at 2 µM (TSSK3) was 98% and the remaining activity at 2 µM (YANK1) was 78%. The remaining activity at 2 µM (PKAC-beta) was 78%, the remaining activity at 2 µM (MST3) was 100% and the remaining activity at 2 µM (MST2) was 97%. The remaining activity at 2 µM (CDC2L1) was 90%, the remaining activity at 2 µM (BUB1) was 94% and the remaining activity at 2 µM (EGFR(G719C)) was 83%. For the same compound, the remaining activity at 2 µM (PLK3) was 93%, the remaining activity at 2 µM (CDC2L2) was 94% and the remaining activity at 2 µM (PIK3CA(E545A)) was 100%. It also gave a remaining activity at 2 µM (AKT1) of 88%, a remaining activity at 2 µM (BMPR1A) of 77% and a remaining activity at 2 µM (LKB1) of 89%. For the same compound, the remaining activity at 2 µM (AAK1) was 80%, the remaining activity at 2 µM (DLK) was 83% and the remaining activity at 2 µM (KIT(D816V)) was 95%. For the same compound, the remaining activity at 2 µM (TEC) was 95%, the remaining activity at 2 µM (PAK2) was 81% and the remaining activity at 2 µM (TAK1) was 84%. It also gave a remaining activity at 2 µM (DRAK1) of 100%, a remaining activity at 2 µM (LIMK1) of 100% and a remaining activity at 2 µM (PRKX) of 69%. For the same compound, the remaining activity at 2 µM (KIT(A829P)) was 78%, the remaining activity at 2 µM (TRKA) was 96% and the remaining activity at 2 µM (PIK3CA(E542K)) was 99%. It also gave an IC50 (CK2 in HEK293 cells) of 600 ± 110 nM, a remaining activity at 2 µM (PIK4CB) of 75% and a remaining activity at 2 µM (DYRK1A) of 99%. The remaining activity at 2 µM (SNRK) was 100%, the remaining activity at 2 µM [1] was 81% and the remaining activity at 2 µM (PIK3CB) was 90%. The “efficacy on the catalytic activity of CK2α and CK2α′” value (CK2α′) was “very similar efficacy”, the remaining activity at 2 µM (MAP4K2) was 100% and the remaining activity at 2 µM (FLT3(K663Q)) was 96%.
